Results as given in patent US9545407B2, “Formulations of a bruton's tyrosine kinase inhibitor” (Pharmacyclics LLC, priority 2014, dated 2017).
Where two headings read alike, the source gives them in different places.

Test system: OCI-Ly10
Assay: growth inhibition of OCI-Ly10 (ABC subtype DLBCL cells)
Type: cell-based
Conditions: Homo sapiens
Description: See U.S. Pat. No. 7,711,492 and Staudt et al., Nature, Vol. 463, Jan. 7, 2010, pp. 88-92, the contents of which are incorporated by reference in their entirety.

C=CC(=O)N1CCC[C@@H](n2nc(-c3ccc(Oc4ccccc4)cc3)c3c(N)ncnc32)C1 [Compound 1, 1-((R)-3-(4-amino-3-(4-phenoxyphenyl)-1H-pyrazolo[3,4-d]pyrimidin-1-yl)piperidin-1-yl)prop-2-en-1-one]
EC50 (continuous exposure, read-out: EC50 continuous exposure): 10 nM
EC50 (read-out: EC50 1 hour pulse, 1 hour pulse): 50 nM
